According to ChEMBL document CHEMBL3608201, “Synthesis and biological evaluation of levofloxacin core-based derivatives with potent antibacterial activity against resistant Gram-positive pathogens” (Bioorg Med Chem Lett, 2015):
In brackets after ≈: the same amount, converted by molar mass.

Assays:
[1] = system: Staphylococcus aureus; assay: Antimicrobial activity against Staphylococcus aureus ATCC 25923 by standard broth microdilution method; type: functional
[2] = system: Staphylococcus aureus; assay: Antimicrobial activity against levofloxacin-resistant Staphylococcus aureus clinical isolates by standard broth microdilution method; type: functional
[3] = system: Streptococcus pneumoniae; assay: Antimicrobial activity against penicillin-resistant Streptococcus pneumoniae clinical isolates by standard broth microdilution method; type: functional
[4] = system: Streptococcus pyogenes; assay: Antimicrobial activity against Streptococcus pyogenes ATCC 19615 by standard broth microdilution method; type: functional
[5] = system: Escherichia coli; assay: Antimicrobial activity against ciprofloxacin-resistant Escherichia coli clinical isolates by standard broth microdilution method; type: functional
[6] = system: Staphylococcus epidermidis; assay: Antimicrobial activity against Staphylococcus epidermidis ATCC 12228 by standard broth microdilution method; type: functional
[7] = system: Escherichia coli; assay: Antimicrobial activity against Escherichia coli ATCC 25922 by standard broth microdilution method; type: functional
[8] = system: Staphylococcus aureus; assay: Antimicrobial activity against methicillin-resistant Staphylococcus aureus clinical isolates by standard broth microdilution method; type: functional
[9] = system: Streptococcus pneumoniae; assay: Antimicrobial activity against Streptococcus pneumoniae ATCC 49619 by standard broth microdilution method; type: functional
[10] = system: Pseudomonas aeruginosa; assay: Antimicrobial activity against Pseudomonas aeruginosa ATCC 27853 by standard broth microdilution method; type: functional
[11] = system: Staphylococcus epidermidis; assay: Antimicrobial activity against methicillin-resistant Staphylococcus epidermidis clinical isolates by standard broth microdilution method; type: functional
[12] = Aqueous solubility of the compound in water; type: physicochemical
[13] = Toxicity in ICR mouse administered as single intravenous dose; type: organism-based; details: in vivo

SMILES	MIC [1] [µg/mL]	MIC [2] [µg/mL]	MIC [3] [µg/mL]	MIC [4] [µg/mL]	MIC [5] [µg/mL]	MIC [6] [µg/mL]	MIC [7] [µg/mL]	MIC [8] [µg/mL]	MIC [9] [µg/mL]	MIC [10] [µg/mL]	MIC [11] [µg/mL]	solubility [12] [µg/mL]	LD50 [13] [mg/kg]
C[C@H]1COc2c(N3CC(O)C3)c(F)cc3c(=O)c(C(=O)O)cn1c23	0.0625 (≈ 0.187 µM)	1 (≈ 2.99 µM)	0.5 (≈ 1.5 µM)	0.125 (≈ 0.374 µM)	0.5 (≈ 1.5 µM)	0.0625 (≈ 0.187 µM)	0.125 (≈ 0.374 µM)	8 (≈ 23.9 µM)	0.25 (≈ 0.748 µM)	4 (≈ 12 µM)	2 (≈ 5.98 µM)	–	–
O=C(O)c1cn2c3c(c(N4CCC(O)CC4)c(F)cc3c1=O)OC[C@@H]2CF	0.0625 (≈ 0.164 µM)	0.5 (≈ 1.31 µM)	0.031 (≈ 0.0815 µM)	0.031 (≈ 0.0815 µM)	2 (≈ 5.26 µM)	0.0625 (≈ 0.164 µM)	1 (≈ 2.63 µM)	2 (≈ 5.26 µM)	0.125 (≈ 0.329 µM)	2 (≈ 5.26 µM)	1 (≈ 2.63 µM)	–	–
O=C(O)c1cn2c3c(c(N4CC[C@@H](O)C4)c(F)cc3c1=O)OC[C@@H]2CF	0.25 (≈ 0.682 µM)	2 (≈ 5.46 µM)	0.25 (≈ 0.682 µM)	0.0625 (≈ 0.171 µM)	1 (≈ 2.73 µM)	0.0625 (≈ 0.171 µM)	0.125 (≈ 0.341 µM)	4 (≈ 10.9 µM)	0.5 (≈ 1.36 µM)	2 (≈ 5.46 µM)	2 (≈ 5.46 µM)	–	–
O=C(O)c1cn2c3c(c(N4CC[C@H](O)C4)c(F)cc3c1=O)OC[C@@H]2CF	0.031 (≈ 0.0846 µM)	0.5 (≈ 1.36 µM)	0.031 (≈ 0.0846 µM)	≤ 0.016	0.5 (≈ 1.36 µM)	0.031 (≈ 0.0846 µM)	0.25 (≈ 0.682 µM)	1 (≈ 2.73 µM)	0.125 (≈ 0.341 µM)	1 (≈ 2.73 µM)	0.5 (≈ 1.36 µM)	440 (≈ 1200 µM)	–
O=C(O)c1cn2c3c(c(N4CC(O)C4)c(F)cc3c1=O)OC[C@@H]2CF	0.125 (≈ 0.355 µM)	–	–	0.0625 (≈ 0.177 µM)	–	0.0625 (≈ 0.177 µM)	0.25 (≈ 0.71 µM)	–	0.25 (≈ 0.71 µM)	4 (≈ 11.4 µM)	–	–	–
O=C(O)c1cn(C2CC2)c2cc(N3CCNCC3)c(F)cc2c1=O [CIPROFLOXACIN]	–	–	–	0.5 (≈ 1.51 µM)	–	0.0625 (≈ 0.189 µM)	≤ 0.016	–	2 (≈ 6.04 µM)	–	–	–	–
C[C@H]1COc2c(N3CCN(C)CC3)c(F)cc3c(=O)c(C(=O)O)cn1c23.C[C@H]1COc2c(N3CCN(C)CC3)c(F)cc3c(=O)c(C(=O)O)cn1c23.O [LEVOFLOXACIN]	0.25	4	–	0.5	8	0.125	≤ 0.016	32	–	–	8	–	358
COc1c(N2C[C@@H]3CCCN[C@@H]3C2)c(F)cc2c(=O)c(C(=O)O)cn(C3CC3)c12 [MOXIFLOXACIN]	–	–	–	0.25 (≈ 0.623 µM)	–	≤ 0.016	0.031 (≈ 0.0772 µM)	–	0.25 (≈ 0.623 µM)	4 (≈ 9.96 µM)	–	–	–
CC1(C)S[C@@H]2[C@H](NC(=O)Cc3ccccc3)C(=O)N2[C@H]1C(=O)O [PENICILLIN G]	–	–	1 (≈ 2.99 µM)	1 (≈ 2.99 µM)	–	–	–	–	1 (≈ 2.99 µM)	–	–	–	–
CN[C@H](CC(C)C)C(=O)N[C@H]1C(=O)N[C@@H](CC(N)=O)C(=O)N[C@H]2C(=O)N[C@H]3C(=O)N[C@H](C(=O)N[C@H](C(=O)O)c4cc(O)cc(O)c4-c4cc3ccc4O)[C@H](O)c3ccc(c(Cl)c3)Oc3cc2cc(c3O[C@@H]2O[C@H](CO)[C@@H](O)[C@H](O)[C@H]2O[C@H]2C[C@](C)(N)[C@H](O)[C@H](C)O2)Oc2ccc(cc2Cl)[C@H]1O [VANCOMYCIN]	–	–	0.125 (≈ 0.0863 µM)	0.0625 (≈ 0.0431 µM)	–	–	–	–	0.25 (≈ 0.173 µM)	–	–	–	–
